Results published in ChEMBL document CHEMBL1201862, “PubChem BioAssay data set” (2004).
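A five-concentration, 48-hour dose response in 96-well plates underlies each endpoint, interpolated linearly between surrounding concentrations. The concentration for 50% growth inhibition is given as GI50.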 Calls of active or inactive are those of the source. No stated cut-off is given here; in the data, active = GI50 up to about 1.1 µM and inactive = higher.

What was measured:
Experiment in all cases: growth of human tumour cells (NCI), 48 h
[1] = test system: NCI-H522
[2] = test system: Hs-578T
[3] = test system: IGROV-1
[4] = test system: NCI/ADR-RES
[5] = test system: OVCAR-3
[6] = test system: NCI-H460
[7] = test system: SF-268
[8] = test system: HL-60
[9] = test system: MOLT-4
[10] = test system: TK-10
[11] = test system: OVCAR-8
[12] = test system: CCRF-CEM
[13] = test system: SK-MEL-28
[14] = test system: CAKI-1
[15] = test system: SNB-75
[16] = test system: COLO 205
[17] = test system: SK-OV-3
[18] = test system: EKVX
[19] = test system: HOP-92
[20] = test system: LOX IMVI

SMILES	GI50 [1]	GI50 [2]	GI50 [3]	GI50 [4]	GI50 [5]	GI50 [6]	GI50 [7]	GI50 [8]	GI50 [9]	GI50 [10]	GI50 [11]	GI50 [12]	GI50 [13]	GI50 [14]	GI50 [15]	GI50 [16]	GI50 [17]	GI50 [18]	GI50 [19]	GI50 [20]
COc1ccc(-c2coc3cc(O)ccc3c2=O)cc1 [FORMONONETIN]	> 100 µM (inactive)	> 100 µM (inactive)	> 100 µM (inactive)	> 100 µM (inactive)	> 100 µM (inactive)	> 100 µM (inactive)	> 100 µM (inactive)	> 100 µM (inactive)	> 100 µM (inactive)	> 100 µM (inactive)	> 100 µM (inactive)	> 100 µM (inactive)	> 100 µM (inactive)	> 100 µM (inactive)	> 100 µM (inactive)	> 100 µM (inactive)	> 100 µM (inactive)	–	–	–
CCOC(=O)C(NC(=O)c1ccccc1)(N1CCN(c2cc3c(cc2F)c(=O)c(C(=O)O)cn3C2CC2)CC1)C(F)(F)F (centres undefined)	–	26.2 µM (inactive)	30.4 µM (inactive)	–	23.4 µM (inactive)	21 µM (inactive)	18.1 µM (inactive)	14.4 µM (inactive)	14.1 µM (inactive)	–	31.3 µM (inactive)	3.37 µM (inactive)	28 µM (inactive)	19.3 µM (inactive)	24 µM (inactive)	17.1 µM (inactive)	28.6 µM (inactive)	24.9 µM (inactive)	19.8 µM (inactive)	–
CC(NC(=O)C1(N)CCCC1)C(=O)O (centres undefined)	> 100 µM (inactive)	> 100 µM (inactive)	> 100 µM (inactive)	> 100 µM (inactive)	> 100 µM (inactive)	–	> 100 µM (inactive)	> 100 µM (inactive)	> 100 µM (inactive)	> 100 µM (inactive)	> 100 µM (inactive)	> 100 µM (inactive)	> 100 µM (inactive)	> 100 µM (inactive)	> 100 µM (inactive)	> 100 µM (inactive)	> 100 µM (inactive)	> 100 µM (inactive)	–	> 100 µM (inactive)
CN1C=Cc2nccc3cc4c(c1c23)OCO4	0.776 µM (active)	13.5 µM (inactive)	> 20.7 µM (inactive)	11.9 µM (inactive)	5.53 µM (inactive)	0.422 µM (active)	3.06 µM (inactive)	> 20.3 µM (inactive)	0.647 µM (active)	3.64 µM (inactive)	5.68 µM (inactive)	1.39 µM (inactive)	4.83 µM (inactive)	0.986 µM (active)	1.49 µM (inactive)	3.18 µM (inactive)	8.39 µM (inactive)	1.85 µM (inactive)	–	6.25 µM (inactive)
Cc1c(N/C=C(\C#N)C(=O)c2ccc(Cl)cc2)c(=O)n(-c2ccccc2)n1C	> 100 µM (inactive)	–	96.8 µM (inactive)	43.9 µM (inactive)	72.1 µM (inactive)	> 100 µM (inactive)	–	38.7 µM (inactive)	–	32.9 µM (inactive)	91.8 µM (inactive)	38.9 µM (inactive)	> 100 µM (inactive)	> 100 µM (inactive)	> 100 µM (inactive)	> 100 µM (inactive)	> 100 µM (inactive)	> 100 µM (inactive)	> 100 µM (inactive)	> 100 µM (inactive)
CN(C)C(=O)N1N[C@H](c2ccccc2)[C@@H]1c1ccccc1	> 100 µM (inactive)	–	> 100 µM (inactive)	> 100 µM (inactive)	> 100 µM (inactive)	–	–	–	> 100 µM (inactive)	> 100 µM (inactive)	> 100 µM (inactive)	> 100 µM (inactive)	> 100 µM (inactive)	> 100 µM (inactive)	> 100 µM (inactive)	> 100 µM (inactive)	> 100 µM (inactive)	> 100 µM (inactive)	> 100 µM (inactive)	> 100 µM (inactive)
CN(c1ccccc1Cl)S(=O)(=O)c1ccccc1	> 100 µM (inactive)	68.5 µM (inactive)	> 100 µM (inactive)	> 100 µM (inactive)	> 100 µM (inactive)	> 100 µM (inactive)	> 100 µM (inactive)	14.6 µM (inactive)	45 µM (inactive)	> 100 µM (inactive)	> 100 µM (inactive)	> 100 µM (inactive)	> 100 µM (inactive)	> 100 µM (inactive)	> 100 µM (inactive)	> 100 µM (inactive)	93.1 µM (inactive)	50.4 µM (inactive)	–	> 100 µM (inactive)
O=C1c2ccccc2C2(c3ccc(Cl)cc3)N[C@@H]3CCCC[C@@H]3N12 (some centres undefined)	–	> 100 µM (inactive)	> 100 µM (inactive)	–	> 100 µM (inactive)	> 100 µM (inactive)	> 100 µM (inactive)	50.1 µM (inactive)	> 100 µM (inactive)	> 100 µM (inactive)	> 100 µM (inactive)	> 100 µM (inactive)	> 100 µM (inactive)	> 100 µM (inactive)	> 100 µM (inactive)	> 100 µM (inactive)	> 100 µM (inactive)	> 100 µM (inactive)	> 100 µM (inactive)	> 100 µM (inactive)
C=C(C)[C@]12CC(C)C34OC(/C=C\C=C\CCCCCCCCC)(O[C@@H]1[C@@H]3[C@@H]1O[C@]1(CO)[C@@H](O)[C@]1(O)C(=O)C(C)=C[C@@H]41)O2 (some centres undefined)	14.7 µM (inactive)	0.01 µM (active)	14.8 µM (inactive)	18.5 µM (inactive)	6.41 µM (inactive)	0.01 µM (active)	12.8 µM (inactive)	0.0103 µM (active)	2.14 µM (inactive)	0.000288 µM (active)	16.3 µM (inactive)	2.52 µM (inactive)	12.1 µM (inactive)	–	5.07 µM (inactive)	0.0001 µM (active)	20.3 µM (inactive)	13.4 µM (inactive)	–	0.026 µM (active)
CN1C/C(=C\c2cccs2)C2=NN(c3ccccc3)C(c3cccs3)C2C1 (centres undefined)	3.43 µM (inactive)	> 100 µM (inactive)	4.06 µM (inactive)	3.77 µM (inactive)	2.79 µM (inactive)	3.52 µM (inactive)	–	1.59 µM (inactive)	3.4 µM (inactive)	31.6 µM (inactive)	10.5 µM (inactive)	2 µM (inactive)	> 100 µM (inactive)	> 72.9 µM (inactive)	–	5.16 µM (inactive)	> 73.3 µM (inactive)	14.7 µM (inactive)	–	5.08 µM (inactive)
O=C(/C=C\c1ccccc1)Oc1ccc(/C=C2\CCCCC2=O)cc1	48 µM (inactive)	61 µM (inactive)	37.8 µM (inactive)	–	72.3 µM (inactive)	73.5 µM (inactive)	25.2 µM (inactive)	14.9 µM (inactive)	0.955 µM (active)	15.1 µM (inactive)	37.8 µM (inactive)	4.98 µM (inactive)	2.18 µM (inactive)	24.3 µM (inactive)	> 100 µM (inactive)	19.9 µM (inactive)	–	57.1 µM (inactive)	69 µM (inactive)	60.4 µM (inactive)
O=C(c1ccco1)N1CCCN(C(=O)c2ccco2)C1=S	–	> 100 µM (inactive)	41.6 µM (inactive)	> 100 µM (inactive)	> 100 µM (inactive)	> 100 µM (inactive)	> 100 µM (inactive)	> 100 µM (inactive)	> 100 µM (inactive)	> 100 µM (inactive)	> 100 µM (inactive)	> 100 µM (inactive)	> 100 µM (inactive)	> 100 µM (inactive)	–	> 100 µM (inactive)	> 100 µM (inactive)	2.32 µM (inactive)	–	> 100 µM (inactive)
C=CC(C)(C)C1(CC(OC)OC)C(=O)N(C)c2ccccc21 (centres undefined)	–	> 25 µM (inactive)	–	> 25 µM (inactive)	> 25 µM (inactive)	> 25 µM (inactive)	> 25 µM (inactive)	> 25 µM (inactive)	–	–	> 25 µM (inactive)	> 25 µM (inactive)	> 25 µM (inactive)	> 25 µM (inactive)	> 25 µM (inactive)	> 25 µM (inactive)	> 25 µM (inactive)	> 25 µM (inactive)	> 25 µM (inactive)	> 25 µM (inactive)
COc1ccc(OCC(=N/NC(=O)c2ccncc2)/N=C/c2cccnc2)cc1	13.1 µM (inactive)	57.9 µM (inactive)	> 100 µM (inactive)	> 100 µM (inactive)	65.8 µM (inactive)	> 100 µM (inactive)	> 100 µM (inactive)	> 100 µM (inactive)	69.8 µM (inactive)	> 100 µM (inactive)	> 100 µM (inactive)	> 100 µM (inactive)	94.8 µM (inactive)	> 100 µM (inactive)	24.2 µM (inactive)	64.6 µM (inactive)	> 100 µM (inactive)	> 100 µM (inactive)	–	89.7 µM (inactive)
CC1=CC=C2c3ccccc3C=CN2C(=O)C1	43.3 µM (inactive)	35.6 µM (inactive)	> 100 µM (inactive)	38.7 µM (inactive)	95.3 µM (inactive)	53.2 µM (inactive)	60.3 µM (inactive)	16.9 µM (inactive)	25.6 µM (inactive)	20.1 µM (inactive)	56.5 µM (inactive)	38.8 µM (inactive)	90.4 µM (inactive)	56.5 µM (inactive)	38.4 µM (inactive)	42.5 µM (inactive)	> 100 µM (inactive)	23 µM (inactive)	–	40.9 µM (inactive)
